Consider 13 molecules from ChEMBL document CHEMBL4619726, “Synthesis of novel tryptanthrin derivatives as dual inhibitors of indoleamine 2,3-dioxygenase 1 and tryptophan 2,3-dioxygenase” (Bioorg Med Chem Lett, 2020).

The target of data set [1] is T1, Indoleamine 2,3-dioxygenase 1 (Homo sapiens, UniProt P14902). Briefly: Inhibition of IDO1 in human HeLa cells. Format: cell-based.
The target of data set [2] is T2, Tryptophan 2,3-dioxygenase (Homo sapiens, UniProt P48775). Description: Inhibition of recombinant human TDO expressed in Escherichia coli BL21 using L-Trp as substrate incubated for 30 mins by enzymatic assay.
Target sequence in this assay (P48775 whole entry): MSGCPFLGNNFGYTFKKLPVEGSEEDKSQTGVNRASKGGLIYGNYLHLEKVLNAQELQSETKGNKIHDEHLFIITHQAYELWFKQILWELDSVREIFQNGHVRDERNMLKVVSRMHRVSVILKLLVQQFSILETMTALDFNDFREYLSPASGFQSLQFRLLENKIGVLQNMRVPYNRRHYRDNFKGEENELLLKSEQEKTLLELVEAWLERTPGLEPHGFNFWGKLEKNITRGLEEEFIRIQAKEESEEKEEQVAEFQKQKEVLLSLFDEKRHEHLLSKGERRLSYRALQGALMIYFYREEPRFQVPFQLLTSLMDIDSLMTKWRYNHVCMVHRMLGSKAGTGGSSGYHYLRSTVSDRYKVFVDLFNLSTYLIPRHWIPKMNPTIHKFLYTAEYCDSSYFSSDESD
Data set [3] deals with T1, Indoleamine 2,3-dioxygenase 1. Description: Inhibition of IDO1 (unknown origin).
Data set [4] in a line: Solubility of compound in water. The format is physicochemical.
The target of data set [5] is T2, Tryptophan 2,3-dioxygenase. Description: Potency index, ratio of IC50 of LM10 to IC50 of compound for inhibition of TDO (unknown origin).
Target sequence in this assay (P48775 whole entry, looked up): as the sequence (P48775 whole entry) above
Data set [6] has as its target T2, Tryptophan 2,3-dioxygenase. Briefly: Potency index, ratio of IC50 of 8-fluorotryptanthrin to IC50 of compound for inhibition of TDO (unknown origin).
Target sequence in this assay (P48775 whole entry, looked up): as the sequence (P48775 whole entry) above

One may read the IC50 as the concentration that gives 50% inhibition. As a reminder, the solubility is how much of the substance goes into solution per volume. A high value points to much dissolved substance.

≈ marks a conversion by molar mass, not a printed value.

T1 sequence (P14902 whole entry): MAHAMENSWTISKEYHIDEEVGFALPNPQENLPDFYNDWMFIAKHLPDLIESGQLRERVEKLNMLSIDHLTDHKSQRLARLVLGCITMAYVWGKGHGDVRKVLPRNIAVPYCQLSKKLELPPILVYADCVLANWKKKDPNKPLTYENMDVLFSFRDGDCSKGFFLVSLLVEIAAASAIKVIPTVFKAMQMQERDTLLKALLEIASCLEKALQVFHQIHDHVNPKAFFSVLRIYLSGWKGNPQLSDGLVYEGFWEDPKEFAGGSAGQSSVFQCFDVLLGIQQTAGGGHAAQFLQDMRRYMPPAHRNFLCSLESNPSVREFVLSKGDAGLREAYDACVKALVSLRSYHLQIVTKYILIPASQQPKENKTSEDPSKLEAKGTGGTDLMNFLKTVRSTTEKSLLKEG

`COC(=O)C1CCCN(Cc2ccc3nc4n(c(=O)c3c2)-c2ccc(F)cc2C4=O)C1` (stereo not drawn): the IC50 was found to be 370 nM in data set [1], 2870 nM in data set [2] and 1430 nM in data set [3]. Also, in data set [4], the solubility is 1.09 µg/mL (≈ 2.58 µM).

For `COC(=O)C1CCN(Cc2ccc3nc4n(c(=O)c3c2)-c2ccc(F)cc2C4=O)CC1`, the results for the IC50 in data set [1], in data set [2] and in data set [3] were 150 nM, 990 nM and 1200 nM, respectively. Also, the solubility in data set [4] is 1.05 µg/mL (≈ 2.5 µM).

Consider `COC(=O)C1CCCN1Cc1ccc2nc3n(c(=O)c2c1)-c1ccc(F)cc1C3=O` (stereo not drawn), for which the IC50 in data set [1] turned out to be 700 nM; in data set [2], 300 nM; in data set [3] it was 460 nM. This molecule showed a solubility in data set [4] of 0.893 µg/mL (≈ 2.19 µM).

Regarding `CC1(C)OB(c2ccc3nc4n(c(=O)c3c2)-c2ccc(F)cc2C4=O)OC1(C)C`, the IC50 amounted to 750 nM in data set [1], 6020 nM in data set [2] and 13100 nM in data set [3]. In data set [4], this molecule came in with a solubility of 0.625 µg/mL (≈ 1.59 µM).

With `O=C1c2cc(F)ccc2-n2c1nc1ccc(B(O)O)cc1c2=O`, the IC50 in data set [1] was determined as 230 nM; in data set [2], 1210 nM; in data set [3], 1790 nM. The amount in solution in data set [4] (solubility) came to 0.69 µg/mL (≈ 2.23 µM).

`CCOC(=O)/C=C/c1ccc2nc3n(c(=O)c2c1)-c1ccc(F)cc1C3=O`: the results for the IC50 in data set [1], in data set [2] and in data set [3] were 20 nM, 370 nM and 190 nM, respectively. The same molecule came in with a solubility in data set [4] of 0.735 µg/mL (≈ 2.02 µM).

For the molecule `O=C1c2cc(F)ccc2-n2c1nc1ccc(CN3CCCC(C(=O)O)C3)cc1c2=O` (stereo not drawn), the IC50 was found to be 1840 nM in data set [1], 420 nM in data set [2] and 570 nM in data set [3]. Also, the solubility in data set [4] is 14.3 µg/mL (≈ 35.1 µM).

For `O=C1c2cc(F)ccc2-n2c1nc1ccc(CN3CCCC3C(=O)O)cc1c2=O` (stereo not drawn), the 50% inhibitory concentration (IC50) in data set [1] came to 3760 nM; in data set [2], 180 nM; in data set [3], 550 nM. Further, the solubility in data set [4] was 15.4 µg/mL (≈ 39.1 µM).

Consider `O=C(O)/C=C/c1ccc2nc3n(c(=O)c2c1)-c1ccc(F)cc1C3=O`, for which the half-maximal inhibitory concentration (IC50) came to 60 nM in data set [1], 30 nM in data set [2] and 120 nM in data set [3]. For the same molecule, the Ratio IC50 is 386 in data set [5] and 32 in data set [6]. The solubility in data set [4] is 1.12 µg/mL (≈ 3.34 µM).

In the case of `O=C1c2cc(F)ccc2-n2c1nc1ccccc1c2=O`, in data set [4], the solubility came out at 0.741 µg/mL (≈ 2.78 µM).

Turning to `O=C1c2cc(F)ccc2-n2c1nc1ccc(CN3CCC(C(=O)O)CC3)cc1c2=O`, the IC50 turned out to be 3100 nM in data set [1], 450 nM in data set [2] and 480 nM in data set [3]. Moreover, the solubility in data set [4] is 16.7 µg/mL (≈ 40.9 µM).

Regarding `O=C1c2cc(F)ccc2-n2c1nc1ccc(Cn3ccnn3)cc1c2=O`, the IC50 amounted to 80 nM in data set [1], 1130 nM in data set [2] and 780 nM in data set [3]. The molecule also showed a solubility in data set [4] of 1.28 µg/mL (≈ 3.69 µM).

Turning to `O=Cc1ccc2nc3n(c(=O)c2c1)-c1ccc(F)cc1C3=O`, the IC50 in data set [1] was determined as 160 nM; in data set [2], 60 nM; in data set [3], 460 nM. Besides, the Ratio IC50 was found to be 193 in data set [5] and 16 in data set [6]. For the same molecule, the solubility in data set [4] came to 0.862 µg/mL (≈ 2.93 µM).
